Test results as given in patent US20250074885A1, “CRYSTALLINE FREEBASE FORM OF 2-(4-CHLOROBENZYLAMINO)-4-(4-TERT-BUTYLAMINOPIPERIDIN-1-YL)-QUINOLINE AND USES THEREOF” (Genoscience Pharma, priority 2023, published 2025).
Like-named read-outs stand apart in the source and are kept apart here. Values belong to the compound of their own block, whether it stands above or below them.

How the values were obtained:
Type in all cases: physicochemical
[1] = Visual (apparent) solubility assessment in re-crystallization solvents; details: for solubility: 20 °C, organic solvent or mixture, thermodynamic from solid, read-out: Estimated solubility
Method: Prior to launching the slurry experiments, an “apparent solubility” is determined in all ageing media. To do so, to accurately weighed small amounts of 2-(4-chlorobenzylamino)-4-(4-tert-butylaminopiperidin-1-yl)-quinoline, aliquots of each solvent are successively added until complete dissolution is observed. The corresponding solubility S is then estimated.

[2] = Dynamic water vapor sorption (DVS) analysis; details: for Hygroscopicity: DVS; for Conversion into hydrated form: high relative humidity up to 95%
Method: The dynamic vapor sorption (DVS) analysis (gas water sorption) is performed on a DVS-Intrinsic incubator (SMS Ltd), equipped with DVS-Intrinsic Control Software 1.0.
The sample, placed in an aluminum basket holder, is submitted to a full-cycle analysis (sorption followed by desorption cycle) under the conditions described in Table 9.
The sample is first pre-dried under a stream of dry air until a stabilized sample mass is observed. Then, the relative humidity is increased by 5% increments. At each step, the sample mass is allowed to increase until equilibrium is reached (according to a given dm/dt target), and then a new relative humidity rise occurs. Relative humidity is ramped up to 95%. After equilibration at this point, desorption begins in a similar stepwise manner, with sample mass decrease again allowed to stabilize after each incremental humidity decrease.
With both segments of the above described method, the sample mass recording allows describing of the whole vapor water sorption/desorption behavior versus relative humidity.

[3] = Physical stability of bulk powder under temperature and humidity stress (XRPD, DSC, TGA); details: for Physical stability as a bulk powder: at least 1 month at +40° C./75% HR and at +60° C.
Method: (§1) The chemical and physical accelerated stability of crystalline form I (see example II) is studied in order to anticipate potential stability issues upon storage or ageing.
(§2) Crystalline form I powder is stored for 1 month at +40° C./75% RH and is also stored for 1 month at +60° C. (with % RH<10%).
The physical stability is also assessed by XRPD, DSC and TGA analyses by comparing the XRPD and thermal profiles of stressed samples to those of a non-stressed sample. For that purpose, one more sample is stored in each condition (respectively +40° C./75% RH and +60° C.).

[4] = Chemical stability of bulk powder under temperature and humidity stress (HPLC); details: for Chemical stability as a bulk powder: at least 1 month at +40° C./75% RH and at +60° C.; for % of unchanged compound left (HPLC-UV at 323 nm): bulk powder, versus standard solutions
Method: as §1, §2
The chemical stability is then assessed by chromatography by external standardization versus a freshly prepared (non-stressed crystalline form I) standard solution. For that purpose, three samples (exactly weighted) are stored for each condition.

[5] = Thermogravimetric analysis (TGA), thermal decomposition
Method: Thermogravimetric analysis is performed on a TA Instruments TGA Hi-Res 2950 apparatus equipped with an evolved gas analysis furnace. A ThermoNicolet Nexus FTIR bench, equipped with FTIR cell gas analysis, is coupled to TGA apparatus via a transfer line.
A sample is placed in an opened aluminum basket and analyzed according to conditions described in Table 6.

[6] = 1 month +40° C./75% RH and +60° C.

Solubility (grade in words) ([1]; Acetone, 20-25° C.): Medium
Solubility (grade in words) ([1]; EtAc, 20-25° C.): Medium
Solubility (grade in words) ([1]; EtOH, 20-25° C.): Medium
Solubility (grade in words) ([1]; IPA, 20-25° C.): Low
Solubility (grade in words) ([1]; IPAC, 20-25° C.): Medium
Solubility (grade in words) ([1]; MEK, 20-25° C.): Low
Solubility (grade in words) ([1]; Propanol-1, 20-25° C.): Medium
Hygroscopicity ([2]; +25° C.): not hygroscopic at all
Conversion into hydrated form [2]: does not convert into any hydrated form
Physical stability as a bulk powder [3]: chemically and physically stable
Chemical stability as a bulk powder [4]: chemically and physically stable
Compound: CC(C)(C)NC1CCN(c2cc(NCc3ccc(Cl)cc3)nc3ccccc23)CC1 [2-(4-chlorobenzylamino)-4-(4-tert-butylaminopiperidin-1-yl)-] [2-(4-chlorobenzylamino)-4-(4-tert-butylaminopiperidin-1-yl)-quinoline]

solubility ([1]; Acetone, visual, 20-25° C.): > 16 mg/mL
solubility ([1]; EtAc, visual, 20-25° C.): > 17.1 mg/mL
solubility ([1]; EtOH, visual, 20-25° C.): > 9.8 mg/mL
solubility ([1]; IPA, visual, 20-25° C.): > 2.6 mg/mL
solubility ([1]; IPAC, visual, 20-25° C.): > 15.2 mg/mL
solubility ([1]; MEK, visual, 20-25° C.): > 2.4 mg/mL
solubility ([1]; Propanol-1, visual, 20-25° C.): > 15.1 mg/mL
Compound: CC(C)(C)NC1CCN(c2cc(NCc3ccc(Cl)cc3)nc3ccccc23)CC1 [2-(4-chlorobenzylamino)-4-(4-tert-butylaminopiperidin-1-yl)-quinoline]

Sample mass variation upon sorption ([2]; +25° C., 0% to 10% RH): no significant mass variation
Hygroscopicity ([2]; +25° C.): non-hygroscopic at all
Final sample mass lower than starting mass after desorption ([2]; +25° C., back to 0% RH, cycle 1, versus mass after pre-drying): 0.09%
Hysteresis on loss of adsorbed water (desorption) ([2]; +25° C., between 95% and 65% RH): without hysteresis
Mass loss during preliminary drying phase ([2]; +25° C./0% RH, before sorption): 0.12%
Water uptake ([2]; +25° C./60% RH, sorption cycle 1): 0.09%
Total water uptake ([2]; +25° C./95% RH, sorption cycle 1): 0.29%
Conversion into hydrated form [2]: does not convert into any hydrated form
XRPD results ([3]; 1 month +40° C./75% HR): Diffractogram comparable to the initial
TOnset of main thermal decomposition (TGA) ([3]; 1 month +40° C./75% RH): +333 °C
TGA difference between stressed samples and initial physical form [3, 6]: No difference
XRPD pattern difference between stressed samples and initial physical form [3, 6]: No XRPD pattern difference
TOnset of main thermal decomposition (TGA) ([3]; 1 month +60° C.): +334 °C
XRPD results ([3]; 1 month +60° C.): Diffractogram comparable to the initial
Physical stability as a bulk powder [3]: physically stable
DSC profile difference between stressed samples and initial physical form ([3]; stored at +40° C./75% RH and at +60° C.): No DSC profile difference
TOnset of main thermal decomposition (TGA) ([5]; non-stressed sample (initial analysis)): +333 °C
Mass loss before the main thermal decomposition (TGA) ([5]; non-stressed sample, upon heating): no mass loss is detected
% purity at 323 nm after stress ([4]; 1 month +40° C./75% RH): (% purity = 98.7% at 323 nm)
Impurity profile compared to the standard profile (HPLC-UV at 323 nm, 252 nm and 203 nm) ([4]; 1 month +40° C./75% RH): No additional impurity
% purity at 323 nm after stress ([4]; 1 month +60° C.): (% purity = 98.8% at 323 nm)
Impurity profile compared to the standard profile (HPLC-UV at 323 nm, 252 nm and 203 nm) ([4]; 1 month +60° C.): No additional impurity
Chemical stability as a bulk powder [4]: chemically stable
% of unchanged compound left (HPLC-UV at 323 nm) ([4]; 1 month +40° C./75% RH): 99.7%
% of unchanged compound left (HPLC-UV at 323 nm) ([4]; 1 month +60° C.): 100.5%
Compound: CC(C)(C)NC1CCN(c2cc(NCc3ccc(Cl)cc3)nc3ccccc23)CC1 [Crystalline Form I, 2-(4-chlorobenzylamino)-4-(4-tert-butylaminopiperidin-1-yl)-quinoline]
